This data set has as its system CCRIS mutagenicity, Ames/micronucleus/aberration tests. The data set is described as follows: CCRIS mutagenicity studies.
The mark [1] stands for this setting: Test System: AMES SALMONELLA TYPHIMURIUM, Strain/Indicator: TA100, Metabolic Activation: NONE, Method: STANDARD PLATE.
Where [2] appears, read: Test System: AMES SALMONELLA TYPHIMURIUM, Strain/Indicator: TA100, Metabolic Activation: RAT, LIVER, S-9, AROCLOR 1254, Method: STANDARD PLATE.
Setting [3] is: Test System: AMES SALMONELLA TYPHIMURIUM, Strain/Indicator: TA1535, Metabolic Activation: NONE, Method: STANDARD PLATE.
The mark [4] stands for this setting: Test System: AMES SALMONELLA TYPHIMURIUM, Strain/Indicator: TA98, Metabolic Activation: NONE, Method: STANDARD PLATE.
Setting [5] is: Test System: AMES SALMONELLA TYPHIMURIUM, Strain/Indicator: TA98, Metabolic Activation: RAT, LIVER, S-9, AROCLOR 1254, Method: STANDARD PLATE.
The mark [6] stands for this setting: Test System: AMES SALMONELLA TYPHIMURIUM, Strain/Indicator: TA1535, Metabolic Activation: RAT, LIVER, S-9, AROCLOR 1254, Method: STANDARD PLATE.
The mark [7] stands for this setting: Test System: AMES SALMONELLA TYPHIMURIUM, Strain/Indicator: TA1537, Metabolic Activation: NONE, Method: STANDARD PLATE.
Setting [8] is: Test System: AMES SALMONELLA TYPHIMURIUM, Strain/Indicator: TA1537, Metabolic Activation: RAT, LIVER, S-9, AROCLOR 1254, Method: STANDARD PLATE.
Where [9] appears, read: Test System: AMES SALMONELLA TYPHIMURIUM, Strain/Indicator: TA1538, Metabolic Activation: NONE, Method: STANDARD PLATE.
[10] abbreviates: Test System: AMES SALMONELLA TYPHIMURIUM, Strain/Indicator: TA1538, Metabolic Activation: RAT, LIVER, S-9, AROCLOR 1254, Method: STANDARD PLATE.

Molecules are shown by their SMILES. Activity calls are given as the source filed them. The rule behind the calls is not given here.

For the compound `ClCCN(CCCl)c1ccc2ccccc2c1`, the mutagenic call by setting is: under setting [1], “active; positive”; under setting [2], “active; positive”; (Test System: AMES SALMONELLA TYPHIMURIUM, Strain/Indicator: TA100, Metabolic Activation: RAT, LIVER, S-9, AROCLOR (10%), Method: STANDARD PLATE) “active; positive”; (Test System: AMES SALMONELLA TYPHIMURIUM, Strain/Indicator: TA100, Metabolic Activation: RAT, LIVER, S-9, AROCLOR (WITHOUT ADDED COFACTORS), Method: STANDARD PLATE) “active; positive”; under setting [3], “active; positive”; (Test System: AMES SALMONELLA TYPHIMURIUM, Strain/Indicator: TA1535, Metabolic Activation: RAT, LIVER, S-9, AROCLOR (10%), Method: STANDARD PLATE) “active; positive”.

Consider `O=[N+]([O-])c1ccccc1SS/C(Cl)=C(\Cl)C(Cl)=C(Cl)Cl`, for which the mutagenic call is “active; positive” (Test System: AMES SALMONELLA TYPHIMURIUM, Strain/Indicator: TA100(DNP6), Metabolic Activation: NONE, Method: PREINCUBATION) and “active; positive” (Test System: AMES SALMONELLA TYPHIMURIUM, Strain/Indicator: TA100(NR), Metabolic Activation: NONE, Method: PREINCUBATION).

As to `C[C@@H]1O[C@@H](OC[C@H]2O[C@@H](Oc3c(-c4ccc(OCCO)c(OCCO)c4)oc4cc(OCCO)cc(O)c4c3=O)[C@H](O)[C@@H](O)[C@@H]2O)[C@H](O)[C@H](O)[C@H]1O`, the mutagenic call by setting is: under setting [4], “inactive; negative”; under setting [5], “inactive; negative”; under setting [1], “inactive; negative”; under setting [2], “inactive; negative”; under setting [3], “inactive; negative”; under setting [6], “inactive; negative”. Also, the mutagenic call by setting is: under setting [7], “inactive; negative”; under setting [8], “inactive; negative”; under setting [9], “inactive; negative”; under setting [10], “inactive; negative”.

Take `CCOC(=O)c1cc2cc3c4c(c2oc1=O)CCCN4CCC3`: the mutagenic call reads like this: under setting [9], “inactive; negative”; under setting [10], “inactive; negative”.

As to `CCN(CC)c1ccc(N=Nc2ccc([N+](=O)[O-])cc2)cc1`, the mutagenic call is “inactive; negative” under setting [4]; “active; positive” under setting [5]; “inactive; negative” under setting [1]; “inactive; negative” under setting [2]; “inactive; negative” under setting [3]; “inactive; negative” under setting [6]. Also, the mutagenic call was “inactive; negative” under setting [7]; “inactive; negative” under setting [8]; “inactive; negative” (Test System: CHINESE HAMSTER V-79, Strain/Indicator: V-79 (HGPRT)/6-THIOGUANINE, Metabolic Activation: NONE); “inactive; negative” (Test System: CHINESE HAMSTER V-79, Strain/Indicator: V-79 (HGPRT)/6-THIOGUANINE, Metabolic Activation: RAT, LIVER, S-9, KANECLOR 400); “inactive; negative” (Test System: UDS RAT HEPATOCYTES, Strain/Indicator: THY INCORP, Metabolic Activation: NONE, Method: AUTORADIOGRAPHY).

For `CC(=O)[C@H]1CC[C@H]2[C@@H]3C=CC4=CC(=O)CC[C@@]4(C)[C@@H]3CC[C@]12C`, the mutagenic call (End Point: IN VIVO MICRONUCLEUS, Test System: HEPATOCYTES, Species: RAT, Strain/Sex: SPRAGUE-DAWLEY/FEMALE, Route: INTRAGASTRIC (GAVAGE)) was “inactive; negative”.

In the case of `CC(=O)N(C)c1ccc(N=Nc2ccc(N(C)C)cc2)cc1`, the mutagenic call runs as follows: (Test System: AMES SALMONELLA TYPHIMURIUM, Strain/Indicator: TA98, Metabolic Activation: RAT, LIVER, S-9, POLYCHLORINATED BIPHENYLS, Method: PREINCUBATION) “active; positive”; (Test System: AMES SALMONELLA TYPHIMURIUM, Strain/Indicator: TA100, Metabolic Activation: RAT, LIVER, S-9, POLYCHLORINATED BIPHENYLS, Method: PREINCUBATION) “active; positive”.

As for `Cc1ccc2[nH]c3c(C)cc([N+](=O)[O-])c(C)c3c2c1`, the mutagenic call by setting is: under setting [4], “active; positive”; (Test System: AMES SALMONELLA TYPHIMURIUM, Strain/Indicator: TA98, Metabolic Activation: RAT LIVER S-9, AROCLOR 1254, Method: STANDARD PLATE) “active; positive”; under setting [1], “inactive; negative”; (Test System: AMES SALMONELLA TYPHIMURIUM, Strain/Indicator: TA100, Metabolic Activation: RAT LIVER S-9, AROCLOR 1254, Method: STANDARD PLATE) “inactive; negative”; (Test System: AMES SALMONELLA TYPHIMURIUM, Strain/Indicator: TA1537, Metabolic Activation: RAT LIVER S-9, AROCLOR 1254, Method: STANDARD PLATE) “active; positive”; (Test System: AMES SALMONELLA TYPHIMURIUM, Strain/Indicator: TA1977, Metabolic Activation: NONE, Method: STANDARD PLATE) “inactive; negative”. For the same compound, for the setting “Test System: AMES SALMONELLA TYPHIMURIUM, Strain/Indicator: TA1977, Metabolic Activation: RAT LIVER S-9, AROCLOR 1254, Method: STANDARD PLATE”, the mutagenic call was “active; positive”.

On to `CCCCCCCC(=O)Nc1snc2ccccc12`, for which the mutagenic call runs as follows: under setting [1], “inactive; negative”; (Test System: AMES SALMONELLA TYPHIMURIUM, Strain/Indicator: TA100, Metabolic Activation: S-9, Method: STANDARD PLATE) “inactive; negative”; under setting [7], “inactive; negative”; (Test System: AMES SALMONELLA TYPHIMURIUM, Strain/Indicator: TA1537, Metabolic Activation: S-9, Method: STANDARD PLATE) “inactive; negative”.

The values above are taken from PubChem BioAssay AID1259407 (Chemical Carcinogenesis Research Information System (CCRIS), 2018).
